Biological target: T1, human P2X4 (Homo sapiens, UniProt Q99571)
T1 sequence (Q99571 1-388): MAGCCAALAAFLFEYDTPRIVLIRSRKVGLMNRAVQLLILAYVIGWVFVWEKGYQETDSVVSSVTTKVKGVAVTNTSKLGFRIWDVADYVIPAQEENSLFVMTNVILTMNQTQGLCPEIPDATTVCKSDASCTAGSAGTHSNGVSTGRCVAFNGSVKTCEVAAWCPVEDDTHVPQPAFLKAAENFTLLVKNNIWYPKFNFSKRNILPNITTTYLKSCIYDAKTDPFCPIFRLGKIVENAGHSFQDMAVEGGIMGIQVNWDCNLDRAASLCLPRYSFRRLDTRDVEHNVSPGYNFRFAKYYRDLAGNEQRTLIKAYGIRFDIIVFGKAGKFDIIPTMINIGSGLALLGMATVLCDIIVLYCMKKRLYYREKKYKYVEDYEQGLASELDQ
Experiment: Human P2X4 HEK Cell FLIPR Assay
Assay type: cell-based
Settings: agonist Bz-ATP at EC80; for Emax: HEK293, HEK293 cells, percentage of maximal inhibition, read-out: Human P2X4 HEK Cells (FLIPR Assay) avg Efficacy [%]; for IC50: HEK293 cells, individual values listed where some fall outside detection range
Summary of the method: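 HEK293 cells stably expressing human P2X4, Fluo8-AM loaded 30 min at 37° C, then compound 30 min at room temperature (0.5% DMSO, pH 7.4 buffer with 1.8 mM CaCl2). Bz-ATP at its daily-determined EC80 added; calcium fluorescence read over 120 sec; IC50 from peak RFU normalized to agonist control, triplicates.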

For `NS(=O)(=O)c1cc(NC(=O)Cc2cc(F)cc(F)c2)ccc1-c1cncc(C(F)(F)F)c1` [Example 452, 2-(3,5-Difluorophenyl)-N-{3-sulfamoyl-4-[5-(trifluoromethyl)pyridin-3-yl]phenyl}acetamide], the Emax was 65% and the IC50 was 76 nM.
In the case of `NS(=O)(=O)c1c(-n2cc(C(F)(F)F)cn2)ccc(NC(=O)Cc2ccccc2Cl)c1C(F)(F)F` [Example 531, 2-(2-Chlorophenyl)-N-{3-sulfamoyl-2-(trifluoromethyl)-4-[4-(trifluoromethyl)-1H-pyrazol-1-yl]phenyl}acetamide], the Emax is reported as 84% and the IC50 is reported as 2320 nM.
In the case of `Cn1cc(-c2ccc(NC(=O)Cc3ccccc3F)cc2S(N)(=O)=O)cn1` [Example 374, 2-(2-Fluorophenyl)-N-[4-(1-methyl-1H-pyrazol-4-yl)-3-sulfamoylphenyl]acetamide], the Emax is reported as 82% and the IC50 is reported as 386 nM.
For `NS(=O)(=O)c1cc(NC(=O)Cc2ccccc2F)ccc1-c1cnn(C(F)F)c1` [Example 296, N-{4-[1-(Difluoromethyl)-1H-pyrazol-4-yl]-3-sulfamoylphenyl}-2-(2-fluorophenyl)acetamide], the Emax was 87% and the IC50 was 136 nM.
With `NS(=O)(=O)c1cc(NC(=O)Cc2ccccc2Cl)ccc1-n1cc2cccnc2n1` [Example 253, 2-(2-Chlorophenyl)-N-[4-(2H-pyrazolo[3,4-b]pyridin-2-yl)-3-sulfamoylphenyl]-acetamide] the Emax was 85% and the IC50 was 257 nM.
For `NS(=O)(=O)c1cc(NC(=O)Cc2ccc(Cl)cc2Cl)ccc1-c1cncc(C(F)(F)F)c1` [Example 448, 2-(2,4-Dichlorophenyl)-N-{3-sulfamoyl-4-[5-(trifluoromethyl)pyridin-3-yl]phenyl}acetamide], the Emax was 63% and the IC50 was 472 nM.
Molecule `N#Cc1cnn(-c2ccc(NC(=O)Cc3ccc(O)cc3Cl)cc2S(N)(=O)=O)c1` [Example 555, 2-(2-Chloro-4-hydroxyphenyl)-N-[4-(4-cyano-1H-pyrazol-1-yl)-3-sulfamoylphenyl]acetamide] has an Emax of 94% and an IC50 of 22 nM.
`CC(C(=O)Nc1cnn(-c2ccc(NC(=O)Cc3ccccc3Cl)cc2S(N)(=O)=O)c1)C(F)(F)F` (racemic) [Example 508, N-[1-(4-{[(2-Chlorophenyl)acetyl]amino}-2-sulfamoylphenyl)-1H-pyrazol-4-yl]-3,3,3-trifluoro-2-methylpropanamide] showed an Emax of 63% and an IC50 of 172 nM.
In the case of `CC(C)(C)C(O)Cn1cc(-c2ccc(NC(=O)Cc3ccccc3Cl)cc2S(N)(=O)=O)cn1` (centres unmarked) [Example 361, 2-(2-Chlorophenyl)-N-{4-[1-(2-hydroxy-3,3-dimethylbutyl)-1H-pyrazol-4-yl]-3-sulfamoylphenyl}acetamide], the Emax is reported as 83% and the IC50 is reported as 97 nM.
`NS(=O)(=O)c1cc(NC(=O)Cc2ccccc2Cl)ccc1-n1cnc2ccncc21` [Example 46, 2-(2-Chlorophenyl)-N-[4-(3H-imidazo[4,5-c]pyridin-3-yl)-3-sulfamoylphenyl]-acetamide] was tested, and the Emax was 87% and the IC50 was 916 nM.
With `NS(=O)(=O)c1cc(NC(=O)Cc2ccc(C(F)F)cc2)ccc1-n1cnc(C(F)(F)F)n1` [Example 60, 2-[4-(Difluoromethyl)phenyl]-N-{3-sulfamoyl-4-[3-(trifluoromethyl)-1H-1,2,4-triazol-1-yl]phenyl}acetamide] the Emax was 80% and the IC50 was 917 nM.
`COc1cccc(Cl)c1CC(=O)Nc1ccc(-n2cc(C(F)(F)F)cn2)c(S(N)(=O)=O)c1` [Example 142, 2-(2-Chloro-6-methoxyphenyl)-N-{3-sulfamoyl-4-[4-(trifluoromethyl)-1H-pyrazol-1-yl]phenyl}acetamide] showed an Emax of 78% and an IC50 of 116 nM.
Work on `CCc1ncn(-c2ccc(NC(=O)Cc3ccccc3Cl)cc2S(N)(=O)=O)n1` [Example 35, 2-(2-Chlorophenyl)-N-[4-(3-ethyl-1H-1,2,4-triazol-1-yl)-3-sulfamoylphenyl]acetamide] yielded an Emax of 90% and an IC50 of 224 nM.
Molecule `NS(=O)(=O)c1cc(NC(=O)Cc2ccccc2Cl)ccc1-n1ncc2cnccc21` [Example 501, 2-(2-Chlorophenyl)-N-[4-(1H-pyrazolo[4,3-c]pyridin-1-yl)-3-sulfamoylphenyl]acetamide] has an Emax of 92% and an IC50 of 3 nM.
With `N#Cc1cnn(-c2cc(C(F)(F)F)c(NC(=O)Cc3cccc(C(F)(F)F)c3Cl)cc2S(N)(=O)=O)c1` [Example 488, 2-[2-Chloro-3-(trifluoromethyl)phenyl]-N-[4-(4-cyano-1H-pyrazol-1-yl)-5-sulfamoyl-2-(trifluoromethyl)phenyl]acetamide] the Emax was 78% and the IC50 was 2330 nM.
Molecule `NS(=O)(=O)c1cc(NC(=O)Cc2ccccc2Cl)ccc1-c1cscn1` [Example 437, 2-(2-Chlorophenyl)-N-[3-sulfamoyl-4-(1,3-thiazol-4-yl)phenyl]acetamide] has an Emax of 53% and an IC50 of 39 nM.
Work on `NS(=O)(=O)c1cc(NC(=O)Cc2ccccc2Br)ccc1-n1cc(Cl)cn1` [Example 74, 2-(2-Bromophenyl)-N-[4-(4-chloro-1H-pyrazol-1-yl)-3-sulfamoylphenyl]acetamide] yielded an Emax of 84% and an IC50 of 49 nM.
For `NS(=O)(=O)c1cc(NC(=O)Cc2ccc(F)cc2Cl)ccc1-n1cc(C(F)(F)F)cn1` [Example 127, 2-(2-Chloro-4-fluorophenyl)-N-{3-sulfamoyl-4-[4-(trifluoromethyl)-1H-pyrazol-1-yl]phenyl}acetamide], the Emax was 85% and the IC50 was 209 nM.
Work on `NS(=O)(=O)c1cc(NC(=O)Cc2ccc(F)cc2)ccc1-n1cc(C(F)(F)F)cn1` [Example 119, 2-(4-Fluorophenyl)-N-{3-sulfamoyl-4-[4-(trifluoromethyl)-1H-pyrazol-1-yl]phenyl}-acetamide] yielded an Emax of 55% and an IC50 of 270 nM.
Work on `NS(=O)(=O)c1cc(NC(=O)Cc2cccc(C(F)(F)F)c2Cl)c(C(F)(F)F)cc1-n1cc(C(F)(F)F)cn1` [Example 533, 2-[2-Chloro-3-(trifluoromethyl)phenyl]-N-{5-sulfamoyl-2-(trifluoromethyl)-4-[4-(trifluoromethyl)-1H-pyrazol-1-yl]phenyl}acetamide] yielded an Emax of 26% and an IC50 of over 25000 nM.
In the case of `Cc1cc(O)nn1-c1ccc(NC(=O)Cc2ccccc2Cl)cc1S(N)(=O)=O` [Example 546, 2-(2-Chlorophenyl)-N-[4-(3-hydroxy-5-methyl-1H-pyrazol-1-yl)-3-sulfamoylphenyl]acetamide], the Emax is reported as 75% and the IC50 is reported as 97 nM.
For `NS(=O)(=O)c1cc(NC(=O)Cc2ccccc2Cl)ccc1-c1nccs1` [Example 427, 2-(2-Chlorophenyl)-N-[3-sulfamoyl-4-(1,3-thiazol-2-yl)phenyl]acetamide], the Emax was 65% and the IC50 was 72 nM.
With `COc1ncc(-c2ccc(NC(=O)Cc3ccccc3Cl)cc2S(N)(=O)=O)s1` [Example 422, 2-(2-Chlorophenyl)-N-[4-(2-methoxy-1,3-thiazol-5-yl)-3-sulfamoylphenyl]acetamide] the Emax was 90% and the IC50 was 46 nM.
`N#Cc1cnn(-c2ccc(NC(=O)Cc3c(F)cc(F)cc3Cl)cc2S(N)(=O)=O)c1` [Example 217, 2-(2-Chloro-4,6-difluorophenyl)-N-[4-(4-cyano-1H-pyrazol-1-yl)-3-sulfamoyl-phenyl]acetamide] was tested, and the Emax was 84% and the IC50 was 51 nM.
In the case of `NS(=O)(=O)c1cc(NC(=O)Cc2ccccc2F)ccc1-n1ncc2ccccc21` [Example 398, 2-(2-Fluorophenyl)-N-[4-(1H-indazol-1-yl)-3-sulfamoylphenyl]acetamide], the Emax is reported as 57% and the IC50 is reported as 207 nM.
For `NS(=O)(=O)c1cc(NC(=O)Cc2ccccc2Cl)ccc1-c1cccnc1` [Example 354, 2-(2-Chlorophenyl)-N-[4-(pyridin-3-yl)-3-sulfamoylphenyl]acetamide], the Emax was 92% and the IC50 was 60 nM.
With `NS(=O)(=O)c1cc(NC(=O)Cc2cccnc2Cl)ccc1-n1cc(C(F)(F)F)cn1` [Example 126, 2-(2-Chloropyridin-3-yl)-N-{3-sulfamoyl-4-[4-(trifluoromethyl)-1H-pyrazol-1-yl]phenyl}acetamide] the Emax was 92% and the IC50 was 1910 nM.
In the case of `Cc1cc(F)c(Br)cc1CC(=O)Nc1ccc(-n2cc(C(F)(F)F)cn2)c(S(N)(=O)=O)c1` [Example 141, 2-(5-Bromo-4-fluoro-2-methylphenyl)-N-{3-sulfamoyl-4-[4-(trifluoromethyl)-1H-pyrazol-1-yl]phenyl}acetamide], the Emax is reported as 96% and the IC50 is reported as 638 nM.
`NS(=O)(=O)c1cc(NC(=O)Cc2ccccc2F)ccc1-c1cnn(C2CCCC2)c1` [Example 348, N-[4-(1-Cyclopentyl-1H-pyrazol-4-yl)-3-sulfamoylphenyl]-2-(2-fluorophenyl)-acetamide] was tested, and the Emax was 96% and the IC50 was 47 nM.
`Cn1c(C#N)ccc1-c1ccc(NC(=O)Cc2ccccc2Cl)cc1S(N)(=O)=O` [Example 530, 2-(2-Chlorophenyl)-N-[4-(5-cyano-1-methyl-1H-pyrrol-2-yl)-3-sulfamoylphenyl]acetamide] gave an Emax of 112% and an IC50 of 33 nM.
In the case of `NS(=O)(=O)c1cc(NC(=O)Cc2ccccc2F)ccc1-n1cnc(Cl)n1` [Example 246, N-[4-(3-Chloro-1H-1,2,4-triazol-1-yl)-3-sulfamoylphenyl]-2-(2-fluorophenyl)acetamide], the Emax is reported as 100% and the IC50 is reported as 252 nM.

Reference: patent US11524938B2, “Aromatic sulfonamide derivatives” (Bayer Pharma Aktiengesellschaft, priority 2016, dated 2022)
